Results published in ChEMBL document CHEMBL5390272, “Discovery of a potent and selective human AC2 inhibitor based on 7-deazapurine analogues of adefovir” (Bioorg Med Chem, 2023).

How the values were obtained:
[1] = Inhibition of Bordetella pertussis Adenylate cyclase toxin in mouse J774.A1 cells preincubated for 5 hrs followed by ACT addition and measured after 30 mins by CatchPointcAMP immunoassay method; type: cell-based
[2] = Cytotoxicity against mouse J774.A1 cells assessed as cell viability at 10 uM incubated for 5 hrs by Cell Titer-Glo Luminescent Cell Viability assay relative to control; type: toxicity, cell-based; conditions: read-out: Activity
[3] = tested on: HEK293; assay: Cytotoxicity against AC1 expressed HEK293 cells by CellTiter-Glo 2.0 assay relative to control; type: toxicity, cell-based; set-up: concentration or dose not given beside the values; conditions: human
[4] = molecular target: Adenylate cyclase type 2 (Homo sapiens, UniProt Q08462); assay: Inhibition of human adenylate cyclase 2 expressed in ACdelta 3/6 knockout HEK293 cells assessed as cyclic AMP accumulation incubated for 30 min followed by FSK stimulation by HTR-FRET assay; type: cell-based
[5] = molecular target: D(1A) dopamine receptor (Homo sapiens, UniProt P21728); assay: Inhibition of human D1 receptor expressed in HEK293 cells assessed as cyclic AMP accumulation incubated for 1 hr in presence of dopamine by HTR-FRET assay; type: functional, cell-based
[6] = tested on: NHDF; assay: Cytotoxicity against human NHDF cells by CellTiter-Glo 2.0 assay; type: toxicity, cell-based
[7] = tested on: HL-60; assay: Cytotoxicity against human HL-60 cells by CellTiter-Glo 2.0 assay; type: functional, cell-based
[8] = tested on: HeLa S3; assay: Cytotoxicity against human HeLa S3 cells by CellTiter-Glo 2.0 assay; type: functional, cell-based
[9] = tested on: CCRF-CEM; assay: Cytotoxicity against human CCRF-CEM cells by CellTiter-Glo 2.0 assay; type: functional, cell-based
[10] = tested on: HepG2; assay: Cytotoxicity against human HepG2 cells by CellTiter-Glo 2.0 assay; type: functional, cell-based

D(1A) dopamine receptor, sequence (P21728 whole entry): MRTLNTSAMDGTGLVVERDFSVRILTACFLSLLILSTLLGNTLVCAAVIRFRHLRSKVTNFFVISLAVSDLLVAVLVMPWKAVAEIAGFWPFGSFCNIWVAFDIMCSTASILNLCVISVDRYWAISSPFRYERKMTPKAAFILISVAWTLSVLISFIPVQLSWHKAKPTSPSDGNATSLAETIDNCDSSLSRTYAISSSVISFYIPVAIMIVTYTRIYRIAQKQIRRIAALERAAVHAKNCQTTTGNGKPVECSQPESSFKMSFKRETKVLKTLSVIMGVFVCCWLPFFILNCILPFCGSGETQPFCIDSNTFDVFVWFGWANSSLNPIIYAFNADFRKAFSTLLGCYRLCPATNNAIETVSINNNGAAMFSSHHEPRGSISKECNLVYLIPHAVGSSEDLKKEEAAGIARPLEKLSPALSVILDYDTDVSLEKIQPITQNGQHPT
Adenylate cyclase type 2, sequence (Q08462 whole entry): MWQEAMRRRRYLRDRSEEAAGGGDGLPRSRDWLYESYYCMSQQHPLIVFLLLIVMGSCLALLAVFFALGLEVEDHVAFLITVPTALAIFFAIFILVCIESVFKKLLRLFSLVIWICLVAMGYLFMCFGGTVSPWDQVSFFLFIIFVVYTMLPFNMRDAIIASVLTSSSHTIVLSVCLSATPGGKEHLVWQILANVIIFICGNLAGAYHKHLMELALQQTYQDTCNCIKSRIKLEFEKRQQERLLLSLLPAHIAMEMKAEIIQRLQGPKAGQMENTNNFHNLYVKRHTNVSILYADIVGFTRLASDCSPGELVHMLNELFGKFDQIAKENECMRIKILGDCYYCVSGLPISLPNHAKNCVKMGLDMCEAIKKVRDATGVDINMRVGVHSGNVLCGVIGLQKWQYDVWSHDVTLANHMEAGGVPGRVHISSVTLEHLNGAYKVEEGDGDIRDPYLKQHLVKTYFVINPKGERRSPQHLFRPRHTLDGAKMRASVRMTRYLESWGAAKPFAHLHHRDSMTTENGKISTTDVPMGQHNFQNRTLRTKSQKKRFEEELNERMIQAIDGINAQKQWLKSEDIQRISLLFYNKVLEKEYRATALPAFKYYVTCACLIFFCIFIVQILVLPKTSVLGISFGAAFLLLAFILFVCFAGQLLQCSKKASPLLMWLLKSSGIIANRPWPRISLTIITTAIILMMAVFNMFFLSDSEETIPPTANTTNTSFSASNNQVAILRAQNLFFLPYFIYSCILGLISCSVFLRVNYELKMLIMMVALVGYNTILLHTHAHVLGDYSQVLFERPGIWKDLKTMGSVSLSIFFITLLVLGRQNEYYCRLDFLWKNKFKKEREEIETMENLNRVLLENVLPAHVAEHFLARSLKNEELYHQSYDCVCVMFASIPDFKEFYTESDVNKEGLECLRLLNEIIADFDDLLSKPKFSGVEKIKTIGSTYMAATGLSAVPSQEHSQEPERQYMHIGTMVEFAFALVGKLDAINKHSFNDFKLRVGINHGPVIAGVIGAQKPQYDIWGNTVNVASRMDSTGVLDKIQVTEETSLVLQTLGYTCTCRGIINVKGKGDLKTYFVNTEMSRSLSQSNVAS

CC(C)OC(=O)[C@H](Cc1ccccc1)NP(=O)(COCCn1cc(-c2cccc(-c3noc(=O)[nH]3)c2)c2c(N)ncnc21)N[C@@H](Cc1ccccc1)C(=O)OC(C)C
IC50 [1]: > 10 µM
viability at 5 h, 10 µM [2]: 114%
Activity [3]: 89%
IC50 [4]: 4.45 µM
IC50 [5]: > 10 µM
IC50 [6]: > 10 µM
IC50 [7]: 10 µM
IC50 [8]: > 10 µM
IC50 [9]: > 10 µM
IC50 [10]: > 10 µM
